Measured values reported in patent US10399949B2, “NK1 receptor antagonist” (KISSEI PHARMACEUTICAL CO., LTD., priority 2015, dated 2019).

Columns and labels:
NK1 receptor = target: T1, NK1 receptor (Meriones unguiculatus, UniProt Q5DUB1); assay: Effect on foot-tapping induced by NK1 receptor agonist GR73632 in gerbil; assay type: in vivo; conditions: male gerbil; 0.3 mg/kg from the jugular vein; GR73632 into the cerebral ventricle after 4 hours; foot-tapping period during 30 minutes
T1 construct: from tissue; host or cells: living male gerbil, central nervous system
Description: (1) Effect on Foot-tapping
The test compound solution was prepared by dissolving the test compound in a vehicle (a mixture of 50% N,N-dimethylacetamide (Wako Pure Chemical Industries), 30% propylene glycol (Wako Pure Chemical Industries), 4% 2-hydroxypropyl-β-cyclodextrin (Wako Pure Chemical Industries) and 16% distilled water).
(§1) A male gerbil (Japan SLC) was anesthetized with isoflurane, and 0.3 mg/kg of a test compound was administered from the jugular vein. After 4 hours, GR73632 (5 pmol/5 μL saline), which is an NK1 receptor agonist, was administered into the cerebral ventricle at the part 1 mm lateral to and 4.5 mm below the bregma in the head, under anesthesia with isoflurane. After the administration, the gerbil was moved to an observation cage, and the foot-tapping period during 30 minutes after the recovery of the righting reflex was measured. As a comparative example, aprepitant, which is an NK1 receptor antagonist, was tested in the same manner. The foot-tapping inhibition rate (%) of each test compound was calculated by the following equation. Foot-tapping inhibition rate (%)={1−(Foot-tapping period when test compound was administered)/(Foot-tapping period when solvent was administered)}×100 (2) Measurement of Drug Concentrations
In the table, Ex. No. means the Example number. Inhibition (%) means the foot-tapping inhibition rate, and Conc. […]

[1] = Measurement of drug concentrations in the brain after foot-tapping test; assay type: in vivo; conditions: male gerbil; 0.3 mg/kg from the jugular vein; brain extracted after foot-tapping was finished; LC/MS
Description: as §1
After foot-tapping was finished, laparotomy was performed immediately under anesthesia with ether, and a blood sample was taken from the abdominal vena cava. At the same time, the brain was extracted. Through a quantitative analysis using liquid chromatography-mass spectrometry (LC/MS), the concentrations of the test compound in the plasma and the brain were measured.
In the table, Ex. No. means the Example number. […]

human NK1 receptor = target: T2, human NK1 receptor (Homo sapiens, UniProt P25103); assay: Inhibitory effect on human NK1 receptor (substance P-induced increase in intracellular calcium concentration); assay type: cell-based; conditions: HEK-293T; substance P 0.1 μM; compound 1 μM; human NK1 receptor-expressing 293T cells; vehicle = 100%; read-out: SPRR (%) (Substance P-Response Remaining, intracellular calcium concentration)
T2 construct: expressed in transfected cells; host or cells: 293T cells (RIKEN), transient transfection with pcDNA3.1(-) plasmid
Description: Inhibitory Effect on Human NK1 Receptor
(1) Preparation of Human NK1 Receptor-Expressing Cells
Human NK1 receptor-expressing cells were prepared by the same methods as those described in 2-3 and 2-4 of Test Example 1.
(2) Study on Inhibitory Effect on Increase in Intracellular Calcium Concentration
The human NK1 receptor-expressing cells were washed with 300 μL/well of a washing solution (20 mM HEPES/Hanks Balanced Salt Solution (HBSS) pH7.3). A fluorescent calcium indicator (Fluo-4 Direct Calcium Assay Kit, Life Technologies, containing 0.42 mM probenecid and 0.1% bovine serum albumin, prepared according to the protocol of the product) was added to the wells at 150 μL/well, and the plate was incubated at 37° C. for 30 minutes in an incubator. Then, DMSO solutions of a test compound, which were prepared at an 80-time higher concentration using 100% dimethyl sulfoxide (DMSO), were added to the wells at 2.5 μL/well (final concentrations of 0.1, 1 and 10 μM), and the solutions were mixed. Then, the plate was further incubated at 37° C. for 30 minutes in an incubator. After 30 minutes, the intracellular calcium concentrations were measured immediately.
The intracellular calcium concentrations were each measured as a fluorescent signal using FDSS® 7000 (Hamamatsu Photonics). A substance P (Peptide Institute, Inc.) solution which was prepared at 0.4 μM or 4 μM using an assay buffer (20 mM HEPES/Hanks Balanced Salt Solution (HBSS) pH 7.3 containing 0.1% bovine serum albumin) was added automatically to each well at 50 μL/well (final concentration of 0.1 or 1 μM) 10 seconds after starting reading, and the fluorescent signal was measured up to 120 seconds.
The intracellular calcium concentration (%) of the cells to which a test compound was added was calculated by the equation below, where the fluorescent signal of the group to which the vehicle (DMSO) was added was regarded as 100%, and the fluorescent signal before the addition of substance P was regarded as 0%. Intracellular calcium concentration (%)=(Fluorescent signal of test compound addition group)/(Fluorescent signal of vehicle addition group)×100
The intracellular calcium concentration (%) calculated was regarded as the remaining agonist activity of substance P (Substance P-Response Remaining: SPRR). In the table, Ex. No. means the Example number. SPRR (%) means the value obtained when the concentration of substance P was 0.1 μM and the concentration of the compound was 1 μM.

T2 sequence (P25103 whole entry): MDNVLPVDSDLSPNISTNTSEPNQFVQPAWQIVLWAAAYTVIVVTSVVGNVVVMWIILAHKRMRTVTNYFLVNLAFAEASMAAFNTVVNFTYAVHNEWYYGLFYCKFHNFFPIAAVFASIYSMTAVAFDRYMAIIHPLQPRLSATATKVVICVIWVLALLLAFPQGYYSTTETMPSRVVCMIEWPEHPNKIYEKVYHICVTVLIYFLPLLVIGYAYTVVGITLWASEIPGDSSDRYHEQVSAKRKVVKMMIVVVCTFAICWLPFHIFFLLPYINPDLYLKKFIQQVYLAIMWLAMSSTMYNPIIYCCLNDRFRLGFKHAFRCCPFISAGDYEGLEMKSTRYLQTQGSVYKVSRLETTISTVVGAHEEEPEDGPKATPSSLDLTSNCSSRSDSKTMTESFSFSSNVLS
T1 sequence (Q5DUB1 whole entry): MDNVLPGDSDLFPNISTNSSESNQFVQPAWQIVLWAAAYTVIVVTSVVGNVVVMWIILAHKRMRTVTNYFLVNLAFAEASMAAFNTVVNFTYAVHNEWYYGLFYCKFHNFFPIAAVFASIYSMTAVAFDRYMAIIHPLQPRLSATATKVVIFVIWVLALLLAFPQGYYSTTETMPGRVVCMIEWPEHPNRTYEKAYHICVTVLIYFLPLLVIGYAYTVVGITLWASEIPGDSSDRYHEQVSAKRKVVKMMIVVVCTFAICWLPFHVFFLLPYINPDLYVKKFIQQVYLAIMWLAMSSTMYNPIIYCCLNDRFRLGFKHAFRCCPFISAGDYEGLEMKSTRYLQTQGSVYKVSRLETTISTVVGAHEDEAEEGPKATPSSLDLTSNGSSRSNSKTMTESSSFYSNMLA

| SMILES | Inhibition(%) (foot-tapping inhibition rate) (NK1 receptor) | Conc. (nM) (drug concentration in the brain) [1] | remaining activity at 1 µM (human NK1 receptor) [%] |
| --- | --- | --- | --- |
| Cc1cc(F)ccc1[C@H]1CN(C[C@H]2CC[C@@H](CC(=O)O)CC2)CCN1C(=O)N(C)[C@H](C)c1cc(C(F)(F)F)cc(C(F)(F)F)c1 [Example 4, cis-{4-[(S)-4-{[(R)-1-(3,5-Bistrifluoromethylphenyl)ethyl]methylcarbamoyl}-3-(4-fluoro-2-methylphenyl)piperazin-1-ylmethyl]cyclohexyl}acetic acid] | 100 | 162 | 2.1 |
| Cc1cc(F)ccc1[C@H]1CN(C[C@H]2CC[C@H](CC(=O)O)CC2)CCN1C(=O)N(C)[C@H](C)c1cc(C(F)(F)F)cc(C(F)(F)F)c1 [Example 5, trans-{4-[(S)-4-{[(R)-1-(3,5-Bistrifluoromethylphenyl)ethyl]methylcarbamoyl}-3-(4-fluoro-2-methylphenyl)piperazin-1-ylmethyl]cyclohexyl}acetic acid] | 100 | 181 | 8.9 |
